Data: patent publication US11622955B2, “Sigma-1 receptor agonist systolic blood pressure therapy” (ANAVEX LIFE SCIENCES CORP., priority 2017, dated 2023)
Structures can show the parent of a compound that is named as a salt.

Assays:
[1] = Example 3: trough systolic blood pressure, combination with a thiazine diuretic; format: in vivo, human; settings: person
Procedure: Effect of 10 mg Once Daily Dosage A2-73 Combination Treatment with a Thiazine Diuretic.
The subject continues on the chlorothalidone and is started on oral A2-73 at a daily dosage of 10 mg/day for a period of 25 days. Their trough systolic blood pressure is then measured at 135 mg Hg and maintained indefinitely with the combined chlorothalidone and daily oral dose of 10 mg of A2-73.

[2] = Example 2: maximum diurnal systolic blood pressure, combination with a β1-selective agent; format: in vivo, human; settings: person
Text: “Maximum diurnal” systolic or diastolic BP is a measure of highest systolic or diastolic blood pressure recorded in a 24-hour period. Without being bound by any particular theory, it is believed that a maximal diurnal BP reflects the peak of the natural diurnal blood pressure cycle, typically occurring in the morning, for example between about 5 am and about 11 am. Commonly, a second peak occurs in the evening, for example between about 5 pm and 10 pm. Such a bimodal waveform diurnal ambulatory BP pattern may be especially characteristic of resistant hypertension.
Effect of 50 mg Once Daily Dosage A2-73 Combination Treatment with a β1-Selective Agent.
The subject continues on the metoprolol tartrate, and is started on oral A2-73 at a daily dosage of 50 mg/day for a period of 25 days. Their maximum diurnal systolic blood pressure is then measured at 135 mg Hg and maintained indefinitely with the combined metoprolol tartrate and daily oral dose of 50 mg of A2-73.

[3] = Example 1: 24-hour ambulatory systolic blood pressure in a patient with high SBP; format: in vivo, human; settings: person
Procedure: Another measure of blood pressure is “24-hour ambulatory” blood pressure. A “24-hour ambulatory” systolic or diastolic BP is an average of systolic or diastolic measurements taken repeatedly in the course of a 24-hour period, in an ambulatory subject.
Effect of 5 mg and 30 mg Once Daily dosage A2-73.
The dose of A2-73 is then increased so that the subject is administered A2-73 daily, at a dosage of 30 mg/day for a period of 25 days. His 24-hour ambulatory systolic blood pressure is then measured at 135 mg Hg and maintained indefinitely with the daily oral dose of 30 mg of A2-73.

[4] = Phase IIa clinical trial in Alzheimer's disease patients, post-hoc evaluation of systolic blood pressure; format: in vivo, human
Procedure: FIG. 1 is a graph of systolic blood pressure readings of 32 human patients of both sexes, across multiple visits, adjusted for time of BP measurement, gender, age, body mass index, and previous or concurrent use of antihypertensive medication.
BPs were measured at four time points during the study period: 1) the day of screening for enrollment, 2) day one of treatment with either oral or intravenous medication (BP measurements were obtained prior to medication administration), 3) day 25 of treatment (when patients crossed over to receive whichever formulation, oral or intravenous, they had not received previously), and 4) day 36 (conclusion of the PART A of the Phase IIa study). Statistical analyses included paired t-testing comparing changes in BPs across each measurement, as well as multivariable linear mixed effects modeling (adjusted for time of measurement, gender, age, body mass index, and use of antihypertensive medication) to account for within-individual repeated measurements over time.
Thirty-two Alzheimer's disease patients took part in the phase IIa trial. Mean age was 69.5 (standard deviation [SD] 9.8) years, 60% were male, mean body mass index was 26.5 (SD 3.9) kg/m2, and 50% were on antihypertensive medication at the time of screening. […] In multivariable adjusted models (FIG. 1), there was no significant difference in SBP between the first and second readings (p=0.211). […] Of note, no patients reported any changes in their antihypertensive regimen while taking part in the trial.

[5] = cited from earlier work
[6] = single oral dose, healthy male volunteers

Structure (SMILES): NS(=O)(=O)c1cc(C2(O)NC(=O)c3ccccc32)ccc1Cl (racemic) [chlorothalidone, (RS)-2-Chloro-5-(1-hydroxy-3-oxo-2,3-dihydro-1H-isoindol-1-yl)benzene-1-sulfonamide, reference compound]
- trough systolic blood pressure ([1]; chlorothalidone 25 mg orally once a day, before A2-73): 150 mg Hg

Structure (SMILES): COCCc1ccc(OCC(O)CNC(C)C)cc1 (racemic) [metoprolol tartrate, (RS)-1-[4-(2-Methoxyethyl)phenoxy]-3-[(propan-2-yl)amino]propan-2-ol, reference compound]
- maximum diurnal systolic blood pressure ([2]; metoprolol tartrate 50 mg twice daily, before A2-73): 150 mg Hg

Structure (SMILES): CN(C)CC1CCOC1(c1ccccc1)c1ccccc1.Cl (centres unmarked) [A2-73, tetrahydro-N,N-dimethyl-2,2-diphenyl-3-furanmethanamine hydrochloride]
- 24-hour ambulatory systolic blood pressure ([3]; 5 mg A2-73 orally once a day): 150 mg Hg
- 24-hour ambulatory systolic blood pressure ([3]; A2-73 30 mg/day oral for 25 days): 135 mg Hg
- maximum diurnal systolic blood pressure ([2]; oral A2-73 50 mg/day for 25 days, combined with continued metoprolol tartrate 50 mg twice daily): 135 mg Hg
- trough systolic blood pressure ([1]; oral A2-73 10 mg/day for 25 days, combined with continued chlorothalidone 25 mg once a day): 135 mg Hg
- tolerability in human patients ([4]; Phase I and Phase IIa clinical trials): well tolerated
- change in SBP, first reading vs other subsequent readings (day 25, day 36) ([4]; multivariable adjusted models (FIG. 1), p=0.048 and 0.008): significant decline in SBP
- change in SBP, second measurement (day one, pre-dose) vs all subsequent measurements ([4]; unadjusted analyses, p=0.120 and 0.972 (day 25, day 36)): no significant decline
- change in SBP, first measurement vs all subsequent measurements ([4]; unadjusted analyses, paired t-test, p=0.007, 0.001 and 0.007, 32 Alzheimer's disease patients, oral or intravenous): significant decline in SBP
- observed adverse events ([5]; at the highest doses): moderate and reversible dizziness and headache
- blood pressure, resting heart rate, vital signs and 12-lead ECG changes ([5]; in vivo, po): did not show any clinically relevant or dose-dependent changes
- pharmacokinetics ([5]; in vivo, po): suitable for daily oral dosing
- serious adverse events ([5]; single ascending oral dose, 22 healthy male volunteers): No serious adverse events occurred
- maximum tolerable dose [5, 6]: 55 mg
- minimum intolerable dose [5, 6]: 60 mg
- safety and tolerability of ascending single oral doses ([5]; single oral doses of 1, 10, 30, 40, 50 and 55 mg, healthy subjects): safe and well tolerated
